Source: patent publication US8921270B2, “Method for pre-emergent weed control using triazine-based herbicide” (Amvac Chemical Corporation, priority 2011, dated 2014)

What was measured:
Giant Ragweed [1] = assay: Weed control field trial, Laurel, Md., light textured soil (Example 5); assay type: in vivo; conditions: 1.2, 1.6, 2.4 lb ai/a PRE; 27 and 56 days after corn emergence
Experimental: (§1) Several scientific and replicated field research trials were conducted in multiple locations to evaluate weed control and crop tolerance of herbicide compositions containing about 80% by weight of ametryn active ingredient in the form of a water dispersible granule (WDG). The herbicide compositions were applied to the soil surface with or without weeds present at specific intervals i) before planting (preplant), ii) prior to planting and incorporated into the soil (preplant incorporated), and iii) after planting of the corn, but prior to emergence (preemergence).
(§2) Small plot research trials were conducted using a statistical design known as Randomized Complete Block Design (RCBD), which assumes that a population of experimental units can be divided into a number of relatively homogeneous subpopulations or blocks. The treatments are then randomly assigned to experimental units such that each treatment occurs equally often (usually once) in each block—i.e., each block contains all treatments. Blocks usually represent levels of naturally occurring differences or sources of variation that are unrelated to the treatments. In the analysis, the variation among blocks can be partitioned out of the experimental error (MSE), thereby reducing this quantity and increasing the power of the test. See, Clewer, A. G., and D. H. Scarisbrick. 2001. Practical statistics and experimental design for plant and crop science. John Wiley & Sons Ltd., New York. crop science. Treatment size was typically 4 rows of corn on 30-inch row spacing×30 feet long replicated 3 to 4 times. Preplant, preplant incorporated (PPI), or preemergence (PRE) treatments were uniformly applied with a hand-held backpack sprayer pressurized with compressed air or carbon dioxide (CO2) as the propellant to simulate commercial scale application. Treatments were applied using flat fan nozzle or spray nozzles at from 30 to 35 pounds per square inch (psi) delivering from 15 to 20 gallons of finished spray solution per acre.
(§3) Efficacy on weeds and crop tolerance evaluations were conducted at specified intervals for each trial. Ametryn herbicide (80% WDG) was applied to the soil at the times relative to planting as indicated at rates of 0.8, 1.2, 1.6, and 2.4 pounds of active ingredient per acre (lb ai/a) at various days preplant up to right before planting (0 day preplant), or immediately following planting (PRE), but before crop emergence. Crop tolerance was evaluated at intervals of 7 to 14, 21 to 28, and 42 to 56 days after corn emergence in these trials. Crop injury, if observed, was reported on a 0 to 100% visual rating scale and the type of injury (e.g., stunting) was noted. The efficacy of ametryn at a rate of 0.8, 1.2, 1.6 and 2.4 lbs ai/a applied 7 to 14 days preplant was evaluated on grass and broadleaf weeds at intervals of 7 to 14, 21 to 28, and 42 to 56 days after corn emergence. Efficacy trials were also conducted in no tillage and reduced tillage cropping systems, allowing for evaluations of existing weeds at application (i.e., burndown) and residual control of weeds which germinate following application. In an additional trial, efficacy of ametryn at rates of 1.2, 1.6 and 2.4 lb ai/a applied PRE was evaluated on grass and broadleaf weeds at the same intervals as the earlier trials. Efficacy in the later trials was conducted in both conventional and reduced tillage systems, which allowed for evaluations of residual weed control following application. A local commercial corn hybrid was planted in each trial location.
(§4) A weed control field trial was conducted in Laurel, Md. on a light textured soil. Ametryn herbicide (80% WDG) was applied preemergence to bare soil in the field to Giant Foxtail, Velvetleaf, Waterhemp, Giant Ragweed, Morningglory, and Cocklebur at rates of 1.2, 1.6 and 2.4 pounds of active ingredient per acre (lb ai/a) immediately following planting (PRE) and prior to corn emergence. The application volume was between 15 and 25 gallons per acre. […]

Velvetleaf [2] = assay: as above; assay type: in vivo; conditions: 1.2, 1.6, 2.4 lb ai/a PRE; 27 and 56 days after corn emergence
Experimental: as §1, §2, §3, §4

Morningglory [3] = assay: as above; assay type: in vivo; conditions: 1.2, 1.6, 2.4 lb ai/a PRE; 27 and 56 days after corn emergence
Experimental: as §1, §2, §3, §4

Waterhemp [4] = assay: as above; assay type: in vivo; conditions: 1.2, 1.6, 2.4 lb ai/a PRE; 27 and 56 days after corn emergence
Experimental: as §1, §2, §3, §4

corn [5] = conditions: in vivo
Experimental: as §1
(§5) Small plot research trials were conducted using a statistical design known as Randomized Complete Block Design (RCBD), which assumes that a population of experimental units can be divided into a number of relatively homogeneous subpopulations or blocks. […] In the analysis, the variation among blocks can be partitioned out of the experimental error (MSE), thereby reducing this quantity and increasing the power of the test. […]
(§6) Efficacy on weeds and crop tolerance evaluations were conducted at specified intervals for each trial. […] Crop tolerance was evaluated at intervals of 7 to 14, 21 to 28, and 42 to 56 days after corn emergence in these trials. […] In an additional trial, efficacy of ametryn at rates of 1.2, 1.6 and 2.4 lb ai/a applied PRE was evaluated on grass and broadleaf weeds at the same intervals as the earlier trials. […]

Giant Foxtail [6] = assay: Weed control field trial, Wyoming, Ill., medium textured soil (Example 7); assay type: in vivo; conditions: PRE; 8 weeks observation after application
Experimental: as §1, §2
(§7) Efficacy on weeds and crop tolerance evaluations were conducted at specified intervals for each trial. […] Crop tolerance was evaluated at intervals of 7 to 14, 21 to 28, and 42 to 56 days after corn emergence in these trials. […] The efficacy of ametryn at a rate of 0.8, 1.2, 1.6 and 2.4 lbs ai/a applied 7 to 14 days preplant was evaluated on grass and broadleaf weeds at intervals of 7 to 14, 21 to 28, and 42 to 56 days after corn emergence. […] In an additional trial, efficacy of ametryn at rates of 1.2, 1.6 and 2.4 lb ai/a applied PRE was evaluated on grass and broadleaf weeds at the same intervals as the earlier trials. […]

Redroot Pigweed = assay: as above; assay type: in vivo; conditions: PRE; 8 weeks observation after application
Experimental: as §1, §2, §7

Velvetleaf [7] = assay: as above; assay type: in vivo; conditions: PRE; 8 weeks observation after application
Experimental: as §1, §2, §7

Lambsquarters [8] = assay: as above; assay type: in vivo; conditions: PRE; 8 weeks observation after application
Experimental: as §1, §2, §7

corn [9] = conditions: in vivo; remark: listed apart in the source
Experimental: as §1, §5, §6

Cocklebur = assay: Weed control field trial, Richland, Iowa, fine textured soil (Example 6); assay type: in vivo; conditions: PRE; 4 weeks observation after application
Experimental: as §1, §2, §3
(§8) A weed control field trial was conducted in Richland, Iowa on a fine textured soil (e.g., silty clay loam). […]

Giant Foxtail [10] = assay: as above; assay type: in vivo; conditions: PRE; 4 weeks observation after application
Experimental: as §1, §2, §3, §8

Giant Ragweed [11] = assay: as above; assay type: in vivo; conditions: PRE; 4 weeks observation after application
Experimental: as §1, §2, §3, §8

Velvetleaf [12] = assay: as above; assay type: in vivo; conditions: PRE; 4 weeks observation after application
Experimental: as §1, §2, §3, §8

Morningglory [13] = assay: as above; assay type: in vivo; conditions: PRE; 4 weeks observation after application
Experimental: as §1, §2, §3, §8

Waterhemp [14] = assay: as above; assay type: in vivo; conditions: PRE; 4 weeks observation after application
Experimental: as §1, §2, §3, §8

corn [15] = conditions: in vivo; remark: listed apart in the source
Experimental: Several scientific and replicated field research trials were conducted in multiple locations to evaluate weed control and crop tolerance of herbicide compositions containing about 80% by weight of […] active ingredient in the form of a water dispersible granule (WDG). The herbicide compositions were applied to the soil surface with or without weeds present at specific intervals i) before planting ([…]) prior to planting and incorporated into the soil ([…] incorporated), and iii) after planting of the corn, but prior to emergence (preemergence). Small plot research trials were conducted using a statistical design known as Randomized Complete Block Design (RCBD), which assumes that a population of experimental units can be divided into a number of relatively homogeneous subpopulations or blocks. […] In the analysis, the variation among blocks can be partitioned out of the experimental error (MSE), thereby reducing this quantity and increasing the power of the test. […] Crop tolerance was evaluated at intervals of 7 to 14, 21 to 28, and 42 to 56 days after corn emergence in these trials. […] Crop tolerance was evaluated at intervals of 23, 33, 41 and 56 days after corn emergence in these trials. […] Corn injury (height of corn, number of plants emerged) was measured as visual injury (% injury) at three different times during the season. […]

Giant Foxtail [16] = assay: Weed control field trial, Geneva, Minn., medium textured soil (Example 10); assay type: in vivo; conditions: PRE; 32 days after application
Experimental: as §1, §2, §7

Velvetleaf [17] = assay: as above; assay type: in vivo; conditions: PRE; 32 days after application
Experimental: as §1, §2, §7

Lambsquarters [18] = assay: as above; assay type: in vivo; conditions: PRE; 32 days after application
Experimental: as §1, §2, §7

Waterhemp [19] = assay: as above; assay type: in vivo; conditions: PRE; 60 days after application
Experimental: as §1, §2, §7

Question: Which Percent weed control (Giant Ragweed [1]) does the source give for `CCNc1nc(NC(C)C)nc(SC)n1` [ametryn, 2-ethylamino-4-isopropylamino-6-methylthio-s-triazine] here?
Answer: significant improvement of weed control over the untreated treatment

Question: What about the Percent weed control (Velvetleaf [2]) of the same compound?
Answer: significant improvement of weed control over the untreated treatment

Question: What about the Percent weed control (Morningglory [3]) of the same compound?
Answer: significant improvement of weed control over the untreated treatment

Question: What about the Percent weed control (Waterhemp [4]) of the same compound?
Answer: significant improvement of weed control over the untreated treatment

Question: What about the Corn injury (corn [5]) of the same compound?
Answer: No injury

Question: And the Weed control (Giant Foxtail [6])?
Answer: good control

Question: And the Weed control (Redroot Pigweed)?
Answer: good control

Question: And the Weed control (Velvetleaf [7])?
Answer: good control

Question: What about the Weed control (Lambsquarters [8]) of the same compound?
Answer: good control

Question: What about the “Percent corn injury (safety to corn)” value (corn [9]) of the same compound?
Answer: excellent safety

Question: And the Weed control (Cocklebur)?
Answer: moderate to good control

Question: What about the Weed control (Giant Foxtail [10]) of the same compound?
Answer: moderate to good control

Question: And the Weed control (Giant Ragweed [11])?
Answer: moderate to good control

Question: What about the Weed control (Velvetleaf [12]) of the same compound?
Answer: moderate to good control

Question: What about the Weed control (Morningglory [13]) of the same compound?
Answer: moderate to good control

Question: And the Weed control (Waterhemp [14])?
Answer: excellent control

Question: And the “Corn injury (visual injury)” value (corn [15])?
Answer: No injury

Question: And the Weed control (Giant Foxtail [16])?
Answer: good control

Question: And the Weed control (Velvetleaf [17])?
Answer: good control

Question: What about the Weed control (Lambsquarters [18]) of the same compound?
Answer: good control

Question: And the Weed control (Waterhemp [19])?
Answer: moderate control
